Here are results for one compound from patent US20210261538A1, “PROTEIN ARGININE METHYLTRANSFERASE 5 (PRMT5) DEGRADATION / DISRUPTION COMPOUNDS AND METHODS OF USE” (ICAHN SCHOOL OF MEDICINE AT MOUNT SINAI, priority 2018, published 2021).

“Also recorded” adds a separate entry of the source.

The target of experiment [1] is T1, PRMT5 (Homo sapiens, UniProt O14744). Briefly: Western blot of PRMT5 protein levels in MCF-7 cells. Format: cell-based. Also on record: endogenous in cells; host or cells: MCF-7. The method, then:
MCF-7 cells, HEK293T cells and HeLa cells were cultured in Dulbecco's Modified Eagle Medium (DMEM) supplemented with 10% fetal bovine serum (FBS) in 5% CO2 at 37° C. Jurkat cells were cultured in RPMI 1640 medium supplemented with 10% FBS in 5% CO2 at 37° C. H2171 cells were cultured in HITES medium supplemented with 10% FBS in 5% CO2 at 37° C. HCT116 were cultured in McCoy's 5A medium supplemented with 10% fetal bovine serum (FBS) in 5% CO2 at 37° C. All the cells lines were treated with 5 μM (or indicated concentration) of PRMT5 inhibitor (EPZ015666) or degraders, or equivalent volume of DMSO for 6 days (or indicated time points). Fresh compounds were constituted in medium and used for every 2 days. The antibodies used in this study are: PRMT5 antibody (Active Motif), (3-actin antibody (Sigma), SDMA antibody (collaboration with Cell Signaling Technologies). Cell cultures were harvested at the end of compound treatments and applied subjected to western blotting assay. Briefly, cells were washed with PBS and lysed with RIPA lysis buffer for 20 minutes on ice. Then lysates were centrifuged and the clear supernatant were collected. SDS loading buffer was added to the lysates and then the mixture was boiled at 100° C. for 5 minutes. Samples were loaded to 10% or 12% SDS-PAGE gel and ran at 120V for 1.5 hours. Then the proteins were transferred to PVDF membrane and blocked in 5% milk fat at room temperature for 1 hour. Then the membranes were incubated with indicated antibodies at 4° C. overnight. Membranes were washed with PBST buffer three times for 10 minutes each time and incubated with HRP-conjugated (horse radish peroxidase) secondary antibodies at room temperature for 1 hour. Again the membranes were washed with PBST buffer three times for 10 minutes each time. Finally, the indicated proteins on the membranes were visualized with ECL (enhanced chemiluminescence) reagents. MCF-7 cells were treated with DMSO or indicated compounds at 5 μM for 6 days. […] MCF-7 cells were treated with DMSO or indicated serial dilutions of compounds for 6 days. The PRMT5 protein levels were determined by Western blot.

Experiment [2] deals with T1, PRMT5. The experiment in a line: Western blot of PRMT5 protein levels in 293T cells. Format: cell-based. More on the design: endogenous in cells; host or cells: 293T (HEK293T). Conditions: 5 μM, 6 days. The method, then: MCF-7 cells, HEK293T cells and HeLa cells were cultured in Dulbecco's Modified Eagle Medium (DMEM) supplemented with 10% fetal bovine serum (FBS) in 5% CO2 at 37° C. Jurkat cells were cultured in RPMI 1640 medium supplemented with 10% FBS in 5% CO2 at 37° C. H2171 cells were cultured in HITES medium supplemented with 10% FBS in 5% CO2 at 37° C. HCT116 were cultured in McCoy's 5A medium supplemented with 10% fetal bovine serum (FBS) in 5% CO2 at 37° C. All the cells lines were treated with 5 μM (or indicated concentration) of PRMT5 inhibitor (EPZ015666) or degraders, or equivalent volume of DMSO for 6 days (or indicated time points). Fresh compounds were constituted in medium and used for every 2 days. The antibodies used in this study are: PRMT5 antibody (Active Motif), (3-actin antibody (Sigma), SDMA antibody (collaboration with Cell Signaling Technologies). Cell cultures were harvested at the end of compound treatments and applied subjected to western blotting assay. Briefly, cells were washed with PBS and lysed with RIPA lysis buffer for 20 minutes on ice. Then lysates were centrifuged and the clear supernatant were collected. SDS loading buffer was added to the lysates and then the mixture was boiled at 100° C. for 5 minutes. Samples were loaded to 10% or 12% SDS-PAGE gel and ran at 120V for 1.5 hours. […]

T1 sequence (O14744 whole entry): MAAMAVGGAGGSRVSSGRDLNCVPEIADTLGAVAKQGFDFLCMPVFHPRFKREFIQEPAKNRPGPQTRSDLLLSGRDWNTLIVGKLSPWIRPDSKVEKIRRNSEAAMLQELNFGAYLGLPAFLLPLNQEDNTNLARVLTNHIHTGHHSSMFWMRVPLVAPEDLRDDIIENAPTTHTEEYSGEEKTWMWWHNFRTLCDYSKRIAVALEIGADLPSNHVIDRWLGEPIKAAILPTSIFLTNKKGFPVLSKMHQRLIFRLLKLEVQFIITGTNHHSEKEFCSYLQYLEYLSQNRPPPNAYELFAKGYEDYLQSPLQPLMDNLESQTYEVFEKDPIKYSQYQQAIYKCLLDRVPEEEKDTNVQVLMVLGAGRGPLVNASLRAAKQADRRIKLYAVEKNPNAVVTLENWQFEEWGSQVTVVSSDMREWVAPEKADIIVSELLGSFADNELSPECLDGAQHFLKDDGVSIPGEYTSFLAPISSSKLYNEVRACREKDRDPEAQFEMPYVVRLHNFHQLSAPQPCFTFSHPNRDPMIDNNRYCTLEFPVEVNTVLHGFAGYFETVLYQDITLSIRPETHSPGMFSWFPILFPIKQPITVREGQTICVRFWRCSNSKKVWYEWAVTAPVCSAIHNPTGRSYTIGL
T1 sequence (Q9BQA1 whole entry partner): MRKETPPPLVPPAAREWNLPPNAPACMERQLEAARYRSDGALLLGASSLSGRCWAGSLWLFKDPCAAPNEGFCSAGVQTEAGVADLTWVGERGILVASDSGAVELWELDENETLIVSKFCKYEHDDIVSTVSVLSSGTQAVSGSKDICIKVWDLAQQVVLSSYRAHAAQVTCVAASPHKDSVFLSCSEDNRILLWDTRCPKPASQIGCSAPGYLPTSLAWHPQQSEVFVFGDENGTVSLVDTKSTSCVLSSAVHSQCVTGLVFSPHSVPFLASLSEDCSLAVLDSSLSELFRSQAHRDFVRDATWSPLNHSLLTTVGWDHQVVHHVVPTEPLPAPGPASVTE

Take `Cc1ncsc1-c1ccc([C@H](C)NC(=O)[C@@H]2C[C@@H](O)CN2C(=O)[C@@H](NC(=O)COCCOCCOCCOCCOCC(=O)N2CC(Nc3cc(C(=O)NC[C@H](O)CN4CCc5ccccc5C4)ncn3)C2)C(C)(C)C)cc1` [YS43-22, N-((S)-3-(3,4-dihydroisoquinolin-2(1H)-yl)-2-hydroxypropyl)-6-((1-((S)-19-((2S,4R)-4-hydroxy-2-(((S)-1-(4-(4-methylthiazol-5-yl)phenyl)ethyl)carbamoyl)pyrrolidine-1-carbonyl)-20,20-dimethyl-17-oxo-3,6,9,12,15-pentaoxa-18-azahenicosanoyl)azetidin-3-yl)amino)pyrimidine-4-carboxamide]: the “suppressing PRMT5 expression” value on PRMT5 [1] (MCF-7 cells (Examples 90-92)) is “especially effective”. For the same compound, the PRMT5 protein levels result on PRMT5 [1] (MCF-7 cells, 5 μM, 6 days, Western blot) is on record as “very well”; at PRMT5 [2] it was “slightly”. In addition, the “PRMT5 protein levels, concentration and time dependence” value at PRMT5 [1] (MCF-7 cells, serial dilutions of compounds, 6 days, Western blot) is “concentration- and time-dependent; also recorded: significantly reduced”.
